{"source": "patent US8354419B2", "about": "“Benzimidazole analogues for the treatment or prevention of flavivirus infections” (Vertex Pharmaceuticals Incorporated, priority 2009, dated 2013)"}
{"system": "HCV (Ib) RNA replication", "test": "Cell-based luciferase reporter HCV (1b) RNA replication assay (replicon cell lines Huh-7 5.2 and ET)", "parameters": "species or system Hepatitis C virus", "settings": "Hepatitis C virus, Huh-7, 96 h, HCV 1b genotype replicon, luciferase readout, 4 days incubation; read-out: EC50_1b", "procedure,_shortened": "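Compounds were tested at eleven concentrations in duplicate over 4 days at 37 °C, 5% CO2. The cells were luciferase-reporter HCV 1b replicon lines 5.2 (NS5A adaptive mutation) or ET (NS4B mutation). Luminescence of lysates was measured, and IC50s were derived by nonlinear curve fitting.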", "units": {"EC50": "nM"}}
{"smiles": "COC(=O)N[C@@H](C(=O)N1CC[C@H]1c1nc2cc(C#CC#Cc3ccc4[nH]c([C@@H]5CCN5C(=O)[C@H](NC(=O)OC)C(C)C)nc4c3)ccc2[nH]1)C(C)C", "note": "[Compound 102]", "EC50": "≤ 5"}
{"smiles": "O=C(CC1CCCCC1)N1CCC[C@H]1c1nc2cc(C#Cc3ccc4[nH]c([C@@H]5CCCN5C(=O)CC5CCCCC5)nc4c3)ccc2[nH]1", "note": "[Compound 103]", "EC50": "5 to 5000"}
{"smiles": "CC[C@@H](NC(C)=O)C(=O)N1CCC[C@H]1c1nc2cc(C#Cc3ccc4[nH]c([C@@H]5CCCN5C(=O)[C@@H](CC)NC(C)=O)nc4c3)ccc2[nH]1", "note": "[Compound 104]", "EC50": "5 to 5000"}
{"smiles": "COCCCC(=O)N1CCC[C@H]1c1nc2cc(C#Cc3ccc4[nH]c([C@@H]5CCCN5C(=O)CCCOC)nc4c3)ccc2[nH]1", "note": "[Compound 105]", "EC50": "5 to 5000"}
{"smiles": "O=C(CC1CCOCC1)N1CCC[C@H]1c1nc2cc(C#Cc3ccc4[nH]c([C@@H]5CCCN5C(=O)CC5CCOCC5)nc4c3)ccc2[nH]1", "note": "[Compound 106]", "EC50": "5 to 5000"}
{"smiles": "CCOCCC(=O)N1CCC[C@H]1c1nc2cc(C#Cc3ccc4[nH]c([C@@H]5CCCN5C(=O)CCOCC)nc4c3)ccc2[nH]1", "note": "[Compound 107]", "EC50": "5 to 5000"}
{"smiles": "O=C(CC1CC1)N1CCC[C@H]1c1nc2cc(C#Cc3ccc4[nH]c([C@@H]5CCCN5C(=O)CC5CC5)nc4c3)ccc2[nH]1", "note": "[Compound 108]", "EC50": "5 to 5000"}
{"smiles": "CCC[C@H](NC(C)=O)C(=O)N1CCC[C@H]1c1nc2cc(C#Cc3ccc4[nH]c([C@@H]5CCCN5C(=O)[C@H](CCC)NC(C)=O)nc4c3)ccc2[nH]1", "note": "[Compound 109]", "EC50": "5 to 5000"}
{"smiles": "CC(=O)NC1(C(=O)N2CCC[C@H]2c2nc3cc(C#Cc4ccc5[nH]c([C@@H]6CCCN6C(=O)C6(NC(C)=O)CC6)nc5c4)ccc3[nH]2)CC1", "note": "[Compound 110]", "EC50": "> 5000"}
{"smiles": "CC[C@H](NC(C)=O)C(=O)N1CCC[C@H]1c1nc2cc(C#Cc3ccc4[nH]c([C@@H]5CCCN5C(=O)[C@H](CC)NC(C)=O)nc4c3)ccc2[nH]1", "note": "[Compound 111]", "EC50": "5 to 5000"}
{"smiles": "CC(C)(C)OC(=O)N1CCCC[C@H]1c1nc2cc(-c3ccc(-c4ccc5nc([C@@H]6CCCCN6C(=O)OC(C)(C)C)[nH]c5c4)s3)ccc2[nH]1", "note": "[Compound 112]", "EC50": "5 to 5000"}
{"smiles": "CC(C)(C)OC(=O)N[C@H](CC1CCC1)C(=O)N1CCC[C@H]1c1nc2cc(C#Cc3ccc4[nH]c([C@@H]5CCCN5C(=O)[C@@H](CC5CCC5)NC(=O)OC(C)(C)C)nc4c3)ccc2[nH]1", "note": "[Compound 113]", "EC50": "≤ 5"}
{"smiles": "CC(C)(C)OC(=O)N1CC(F)(F)C[C@H]1C(=O)N1CCC[C@H]1c1nc2cc(C#Cc3ccc4[nH]c([C@@H]5CCCN5C(=O)[C@@H]5CC(F)(F)CN5C(=O)OC(C)(C)C)nc4c3)ccc2[nH]1", "note": "[Compound 114]", "EC50": "5 to 5000"}
{"smiles": "COC(=O)N[C@H](C(=O)N1CCC[C@H]1c1nc2cc(C#Cc3ccc4nc([C@@H]5CCCN5C(=O)[C@@H](NC(=O)OC)C5CCCCC5)[nH]c4c3)ccc2[nH]1)C(C)C", "note": "[Compound 115]", "EC50": "≤ 5"}
{"smiles": "COC(=O)N[C@H](C(=O)N1CCC[C@H]1c1nc2cc(CCc3ccc4[nH]c([C@@H]5CCCN5C(=O)[C@H](NC(=O)OC)C(C)C)nc4c3)ccc2[nH]1)C(C)C", "note": "[Compound 116]", "EC50": "≤ 5"}
{"smiles": "COC(=O)N[C@H](C(=O)N1CCC[C@H]1c1nc2cc(C#Cc3ccc4nc([C@@H]5CCCN5C(=O)[C@H](C(C)C)N(C)C(=O)OC)[nH]c4c3)ccc2[nH]1)C(C)C", "note": "[Compound 117]", "EC50": "≤ 5"}
{"smiles": "CC[C@H](NC(=O)OC)C(=O)N1CCC[C@H]1c1nc2cc(C#Cc3ccc4[nH]c([C@@H]5CCCN5C(=O)[C@H](CC)NC(=O)OC)nc4c3)ccc2[nH]1", "note": "[Compound 118]", "EC50": "≤ 5"}
{"smiles": "O=C(OCc1ccccc1)N1COC[C@@H]1C(=O)N1CCC[C@H]1c1nc2cc(C#Cc3ccc4[nH]c([C@@H]5CCCN5C(=O)[C@H]5COCN5C(=O)OCc5ccccc5)nc4c3)ccc2[nH]1", "note": "[Compound 119]", "EC50": "≤ 5"}
{"smiles": "O=C(C1CCCC1)N1CCCC[C@H]1c1nc2cc(C#CC#Cc3ccc4[nH]c([C@@H]5CCCCN5C(=O)C5CCCC5)nc4c3)ccc2[nH]1", "note": "[Compound 120]", "EC50": "> 5000"}
{"smiles": "CC(C)(C)OC(=O)NC(CC1CCC1)C(=O)N1CCC[C@H]1c1nc2cc(C#Cc3ccc4[nH]c([C@@H]5CCCN5C(=O)[C@H](CC5CCC5)NC(=O)OC(C)(C)C)nc4c3)ccc2[nH]1", "note": "(stereo partly drawn) [Compound 121]", "EC50": "5 to 5000"}
{"smiles": "COC(=O)N[C@H](C(=O)N1CCC[C@H]1c1nc2cc(C#Cc3ccc4nc([C@@H]5CCCN5C(=O)NC(C)C)[nH]c4c3)ccc2[nH]1)C(C)C", "note": "[Compound 122]", "EC50": "≤ 5"}
{"smiles": "COC(=O)N[C@H](C(=O)N1CCC[C@H]1c1nc2cc(C#Cc3ccc4nc([C@@H]5CCCN5C(=O)NC5CCCCC5)[nH]c4c3)ccc2[nH]1)C(C)C", "note": "[Compound 123]", "EC50": "5 to 5000"}
{"smiles": "CC(C)(C)CC(=O)N1CCC[C@H]1c1nc2cc(C#Cc3ccc4[nH]c([C@@H]5CCCN5C(=O)CC(C)(C)C)nc4c3)ccc2[nH]1", "note": "[Compound 124]", "EC50": "5 to 5000"}
{"smiles": "O=C(CC1CCCC1)N1CCC[C@H]1c1nc2cc(C#Cc3ccc4[nH]c([C@@H]5CCCN5C(=O)CC5CCCC5)nc4c3)ccc2[nH]1", "note": "[Compound 125]", "EC50": "5 to 5000"}
{"smiles": "CC(C)(C)OC(=O)NC(C)(C)C(=O)N1CCC[C@H]1c1nc2cc(C#Cc3ccc4[nH]c([C@@H]5CCCN5C(=O)C(C)(C)NC(=O)OC(C)(C)C)nc4c3)ccc2[nH]1", "note": "[Compound 128]", "EC50": "5 to 5000"}
{"smiles": "CC(C)(C)OC(=O)N1CC[C@H]1C(=O)N1CCC[C@H]1c1nc2cc(C#Cc3ccc4[nH]c([C@@H]5CCCN5C(=O)[C@@H]5CCN5C(=O)OC(C)(C)C)nc4c3)ccc2[nH]1", "note": "[Compound 129]", "EC50": "> 5000"}
{"smiles": "CC(C)(C)OC(=O)NC1(C(=O)N2CCC[C@H]2c2nc3cc(C#Cc4ccc5[nH]c([C@@H]6CCCN6C(=O)C6(NC(=O)OC(C)(C)C)CCC6)nc5c4)ccc3[nH]2)CCC1", "note": "[Compound 130]", "EC50": "5 to 5000"}
{"smiles": "COC(=O)N[C@H](C(=O)N1CCC[C@H]1c1nc2cc(-c3ccsc3-c3ccc4[nH]c([C@@H]5CCCN5C(=O)[C@@H](NC(=O)OC)C(C)C)nc4c3)ccc2[nH]1)C(C)C", "note": "[Compound 133]", "EC50": "≤ 5"}
{"smiles": "CC(C)(C)CCN1CCC[C@H]1c1nc2cc(C#Cc3ccc4[nH]c([C@@H]5CCCN5CCC(C)(C)C)nc4c3)ccc2[nH]1", "note": "[Compound 134]", "EC50": "5 to 5000"}
{"smiles": "CC(C)CCN1CCC[C@H]1c1nc2cc(C#Cc3ccc4[nH]c([C@@H]5CCCN5CCC(C)C)nc4c3)ccc2[nH]1", "note": "[Compound 135]", "EC50": "5 to 5000"}
{"smiles": "C(#Cc1ccc2[nH]c([C@@H]3CCCN3CC3CCCCC3)nc2c1)c1ccc2[nH]c([C@@H]3CCCN3CC3CCCCC3)nc2c1", "note": "[Compound 136]", "EC50": "5 to 5000"}
{"smiles": "CCC(C)CN1CCC[C@H]1c1nc2cc(C#Cc3ccc4[nH]c([C@@H]5CCCN5CC(C)CC)nc4c3)ccc2[nH]1", "note": "(stereo partly drawn) [Compound 137]", "EC50": "5 to 5000"}
{"smiles": "C(#Cc1ccc2[nH]c([C@@H]3CCCN3CCC3CCOCC3)nc2c1)c1ccc2[nH]c([C@@H]3CCCN3CCC3CCOCC3)nc2c1", "note": "[Compound 138]", "EC50": "5 to 5000"}
{"smiles": "C(#Cc1ccc2[nH]c([C@@H]3CCCN3CC3CCCC3)nc2c1)c1ccc2[nH]c([C@@H]3CCCN3CC3CCCC3)nc2c1", "note": "[Compound 139]", "EC50": "5 to 5000"}
{"smiles": "CCC(CC)CN1CCC[C@H]1c1nc2cc(C#Cc3ccc4[nH]c([C@@H]5CCCN5CC(CC)CC)nc4c3)ccc2[nH]1", "note": "[Compound 140]", "EC50": "5 to 5000"}
{"smiles": "COC(=O)N[C@H](C(=O)N1CCC[C@H]1c1nc2cc(-c3ccc(-c4ccc5nc([C@@H]6CCCN6C(=O)[C@@H](NC(=O)OC)C(C)C)[nH]c5c4)cc3[N+](=O)[O-])ccc2[nH]1)C(C)C", "note": "[Compound 141]", "EC50": "≤ 5"}
{"smiles": "COC(=O)N[C@H](CC1CCC1)C(=O)N1CCC[C@H]1c1nc2ccc(C#Cc3ccc4nc([C@@H]5CCCN5C(=O)[C@@H](CC5CCC5)NC(=O)OC)[nH]c4c3)cc2[nH]1", "note": "[Compound 142]", "EC50": "≤ 5"}
{"smiles": "COC(=O)N[C@H](C(=O)N1CCC[C@H]1c1nc2cc(-c3c(F)cc(-c4ccc5nc([C@@H]6CCCN6C(=O)[C@@H](NC(=O)OC)C(C)C)[nH]c5c4)cc3F)ccc2[nH]1)C(C)C", "note": "[Compound 143]", "EC50": "≤ 5"}
{"smiles": "COC(=O)N[C@H](C(=O)N1CCC[C@H]1c1nc2cc(C)c(-c3ccc(-c4cc5[nH]c([C@@H]6CCCN6C(=O)[C@@H](NC(=O)OC)C(C)C)nc5cc4C)cc3)cc2[nH]1)C(C)C", "note": "[Compound 144]", "EC50": "≤ 5"}
{"smiles": "COC(=O)N[C@H](C(=O)N1CC[C@H]1c1nc2ccc(-c3ccc(-c4ccc5nc([C@@H]6CCN6C(=O)[C@@H](NC(=O)OC)C(C)C)[nH]c5c4)cc3)cc2[nH]1)C(C)C", "note": "[Compound 145]", "EC50": "≤ 5"}
{"smiles": "COC(=O)N[C@H](C(=O)N1CCC[C@H]1c1nc2cc(-c3ccc(-c4ccc5nc([C@@H]6CCCN6C(=O)[C@@H](NC(=O)OC)C(C)C)[nH]c5c4)c4c3OCO4)ccc2[nH]1)C(C)C", "note": "[Compound 146]", "EC50": "≤ 5"}
{"smiles": "COC(=O)N[C@H](C(=O)N1CCC[C@H]1c1nc2cc(C#Cc3ccc(-c4ccc5[nH]c([C@@H]6CCCN6C(=O)[C@@H](NC(=O)OC)C(C)C)nc5c4)cc3)ccc2[nH]1)C(C)C", "note": "[Compound 147]", "EC50": "≤ 5"}
{"smiles": "COC(=O)N[C@H](C(=O)N1CCCC[C@H]1c1nc2ccc(-c3ccc(-c4ccc5nc([C@@H]6CCCCN6C(=O)[C@@H](NC(=O)OC)C(C)C)[nH]c5c4)cc3)cc2[nH]1)C(C)C", "note": "[Compound 148]", "EC50": "≤ 5"}
{"smiles": "COC(=O)N[C@H](C(=O)N1CCC[C@H]1c1nc2cc(-c3c(C)cc(-c4ccc5nc([C@@H]6CCCN6C(=O)[C@@H](NC(=O)OC)C(C)C)[nH]c5c4)cc3C)ccc2[nH]1)C(C)C", "note": "[Compound 149]", "EC50": "≤ 5"}
{"smiles": "COC(=O)N[C@H](C(=O)N1CCC[C@H]1c1nc2cc(-c3ccc(-c4ccc5[nH]c([C@@H]6CCCN6C(=O)[C@@H](NC(=O)OC)C(C)C)nc5c4)c(S(C)(=O)=O)c3)ccc2[nH]1)C(C)C", "note": "[Compound 150]", "EC50": "≤ 5"}
{"smiles": "COC(=O)NCCN1CCC[C@H]1c1nc2cc(C#Cc3ccc4[nH]c([C@@H]5CCCN5CCNC(=O)OC)nc4c3)ccc2[nH]1", "note": "[Compound 151]", "EC50": "5 to 5000"}
{"smiles": "Cc1nc(C)c(C(=O)N2CCC[C@H]2c2nc3cc(C#Cc4ccc5nc([C@@H]6CCCN6C(=O)c6sc(C)nc6C)[nH]c5c4)ccc3[nH]2)s1", "note": "[Compound 152]", "EC50": "5 to 5000"}
{"smiles": "CCCC/C(=C/c1ccc2[nH]c([C@@H]3CCCN3C(=O)[C@@H](NC(=O)OC)C(C)C)nc2c1)c1ccc2[nH]c([C@@H]3CCCN3C(=O)[C@@H](NC(=O)OC)C(C)C)nc2c1", "note": "[Compound 153]", "EC50": "≤ 5"}
